Results from patent US20250197420A1, “MACROCYCLIC COMPOUNDS, COMPOSITIONS, AND METHODS OF USING THEREOF” (Sionna Therapeutics Inc., priority 2022, published 2025).

Legend:
[1] = molecular target: T1, Purified recombinant NBD1 (Homo sapiens, UniProt P13569); assay: Aggregation analysis using differential static light scattering (DSLS): thermal stability of NBD1; type: binding; conditions: NBD1 0.2 mg/ml; Tagg of compound well minus average Tagg of DMSO control wells
T1 construct: Purified recombinant NBD1 was produced using previously described methods; made in house
T1 sequence (P13569 423-646 limits assumed): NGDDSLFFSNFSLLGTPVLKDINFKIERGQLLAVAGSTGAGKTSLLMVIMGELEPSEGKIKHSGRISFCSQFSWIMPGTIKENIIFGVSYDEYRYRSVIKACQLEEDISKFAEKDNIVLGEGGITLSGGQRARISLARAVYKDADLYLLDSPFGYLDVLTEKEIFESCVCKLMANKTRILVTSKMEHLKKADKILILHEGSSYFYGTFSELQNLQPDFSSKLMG
Summary of the method: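 ΔTagg is compound-well aggregation temperature minus the DMSO-control mean, each Tagg being the inflection point of light scattering measured by DSLS during a 1 °C/min ramp up to 70 °C. The protein was purified NBD1 (0.2 mg/ml) in pH 7.6 buffer containing 2 mM ATP, 5 mM MgCl2 and 1% glycerol.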

[2] = tested on: Primary human bronchial epithelial cells from a ΔF508 homozygous CF donor (CF-HBE cells); assay: TECC24 recording of CFTR-mediated transepithelial chloride transport, AUC fold over benchmark VX-809 @10 μM; type: cell-based; conditions: 48 hours incubation, AUC of forskolin-stimulated IEQ
Summary of the method: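 Values are the forskolin-to-inhibitor-172 AUC of equivalent Cl− current, derived from transepithelial voltage and resistance, divided by the VX-809 AUC and binned as A <3, B 3–6, C 6–20. Cells were pre-incubated with compound for 48 h at 36.5 °C; the bath (pH 7.4) received benzamil 10 μM, forskolin 10 μM, then CFTRinh-172 20 μM.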

Row | Structure (SMILES) | DSLS (ΔTagg) [1] | TECC (test agent AUC divided by VX-809 AUC) [2]
1 | CC1(c2cccc(CCC(=O)O)c2)CCCC2(CC2)CNC(=O)CCc2c(c(F)c(F)c3[nH]ccc23)Oc2ccc(F)c(c2)-c2ncc1[nH]2 (single isomer, unassigned) [Compound 69A, 3-[3-(22,23,29-trifluoro-6-methyl-13-oxo-spiro[25-oxa-3,12,20,31-tetrazapentacyclo-[24.3.1.12,5.016,24.017,21]hentriaconta-1(30),2,4,16,18,21,23,26,28-nonaene-10,1′-cyclopropane]-6-yl)phenyl]propanoic acid] | A (an ΔTagg value less than or equal to 5 °C is marked “A”) | B (a value between 3 and 6 is marked “B”)
2 | CN1CC2(CCCC(C)(c3cccc(CCC(=O)O)c3)c3cnc([nH]3)-c3cc(ccc3F)Oc3c(F)cc4[nH]ccc4c3CCC1=O)CC2 (stereo not drawn) [Compound 34, 3-[3-(23,29-Difluoro-6,12-dimethyl-13-oxo-spiro[25-oxa-3,12,20,31-tetrazapentacyclo[24.3.1.12,5.016,24.017,21]hentriaconta-1(30),2,4,16,18,21,23,26,28-nonaene-10,1′-cyclopropane]-6-yl)phenyl]propanoic acid] | C (a value greater than 10 °C and less than or equal to 25 °C is marked “C”) | A (a TECC value less than 3 is marked “A”)
3 | Cn1nc2nc1-c1cc(ccc1F)Oc1c(F)cc3[nH]ccc3c1COC(=O)NC(C)(C)COCCC2(C)c1cccc(CCC(=O)O)c1 (single isomer, unassigned) [Compound 100B, 3-[3-(23,29-difluoro-3,6,11,11-tetramethyl-13-oxo-9,14,25-trioxa-3,4,12,20,31-pentazapentacyclo-[24.3.1.12,5.016,24.017,21]hentriaconta-1(30),2(31),4,16,18,21,23,26,28-nonaen-6-yl)phenyl]propanoic acid] | A (an ΔTagg value less than or equal to 5 °C is marked “A”) | C (a value between 6 and 20 is marked “C”)
4 | CN1Cc2c(c(F)cc3[nH]ccc23)Oc2ccc(F)c(c2)-c2ncc([nH]2)C(C)(c2cccc(CCC(=O)O)c2)CCCOCC(C)(C)C1=O (stereo not drawn) [Compound 73, 3-[3-(23,29-difluoro-6,12,12,14-tetramethyl-13-oxo-10,25-dioxa-3,14,20,31-tetrazapentacyclo[24.3.1.12,5.016,24.017,21]hentriaconta-1(30),2,4,16,18,21,23,26,28-nonaen-6-yl)phenyl]propanoic acid] | C (a value greater than 10 °C and less than or equal to 25 °C is marked “C”) | B (a value between 3 and 6 is marked “B”)
5 | O=C(O)CCc1cccc(C2CCCCNC(=O)CCc3c(c(F)cc4[nH]ccc34)Oc3ccc(F)c(c3)-c3ncc2[nH]3)c1 (stereo not drawn) [Compound 3, 3-[3-(22,28-Difluoro-12-oxo-24-oxa-3,11,19,30-tetrazapentacyclo-[23.3.1.12,5.015,23.016,20]triaconta-1(29),2,4,15,17,20,22,25,27-nonaen-6-yl)phenyl]-propanoic acid] | C (a value greater than 10 °C and less than or equal to 25 °C is marked “C”) | B (a value between 3 and 6 is marked “B”)
6 | CC1(c2cccc(CCC(=O)O)c2)CCCCNC(=O)OCCc2c(c(F)cc3[nH]ccc23)Oc2ccc(F)c(c2)-c2ncc1[nH]2 (stereo not drawn) [Compound 86, 3-[3-(23,29-Difluoro-6-methyl-12-oxo-13,25-dioxa-3,11,20,31-tetrazapentacyclo[24.3.1.12,5.016,24.017,21]hentriaconta-1(30),2,4,16(24),17(21),18,22,26,28-nonaen-6-yl)phenyl]propanoic acid] | C (a value greater than 10 °C and less than or equal to 25 °C is marked “C”) | C (a value between 6 and 20 is marked “C”)
7 | [2H]C([2H])([2H])n1nc2nc1-c1cc(ccc1F)Oc1c(F)cc3[nH]ccc3c1CCC(=O)N(C)CC(C)(C)CCCC2(C)c1cccc(CCC(=O)NS(C)(=O)=O)c1 (single isomer, unassigned) [Compound 79B, 3-[3-[23,29-difluoro-6,10,10,12-tetramethyl-13-oxo-3-(trideuteriomethyl)-25-oxa-3,4,12,20,31-pentazapentacyclo[24.3.1.12,5.016,24.017,21]hentriaconta-1(30),2(31),4,16,18,21,23,26,28-nonaen-6-yl]phenyl]-N-methylsulfonyl-propanamide] | C (a value greater than 10 °C and less than or equal to 25 °C is marked “C”) | C (a value between 6 and 20 is marked “C”)
8 | C[C@H](Cc1cccc([C@@]2(C)CCCCC(C)(C)CN(C)C(=O)Cc3c(c(F)cc4[nH]ccc34)Oc3ccnc(c3)-c3nc2nn3C)c1)C(=O)O [Compound 122, (2R)-3-[3-[(6R)-23-fluoro-3,6,11,11,13-pentamethyl-14-oxo-25-oxa-3,4,13,20,29,31-hexazapentacyclo[24.3.1.12,5.016,24.017,21]hentriaconta-1(30),2(31),4,16,18,21,23,26,28-nonaen-6-yl]phenyl]-2-methyl-propanoic acid] | B (a value above 5 °C and less than or equal to 10 °C is marked “B”) | A (a TECC value less than 3 is marked “A”)
9 | CC1(c2cccc(CCC(=O)O)c2)CNC(=O)OCCCCc2c(c(F)cc3[nH]ccc23)Oc2ccc(F)c(c2)-c2ncc1[nH]2 (stereo not drawn) [Compound 83, 3-[3-(22,28-Difluoro-6-methyl-9-oxo-10,24-dioxa-3,8,19,30-tetrazapentacyclo[23.3.1.12,5.015,23.016,20]triaconta-1(29),2,4,15,17,20,22,25,27-nonaen-6-yl)phenyl]propanoic acid] | A (an ΔTagg value less than or equal to 5 °C is marked “A”) | A (a TECC value less than 3 is marked “A”)
10 | CN1CC(C)(C)CCCC(C)(c2cccc(CCC(=O)NO)c2)c2cnc([nH]2)-c2cc(ccc2F)Oc2c(F)cc3[nH]ccc3c2CCC1=O (single isomer, unassigned) [Compound 55, 3-[3-(23,29-difluoro-6,10,10,12-tetramethyl-13-oxo-25-oxa-3,12,20,31-tetrazapentacyclo-[24.3.1.12,5.016,24.017,21]hentriaconta-1(30),2,4,16,18,21,23,26,28-nonaen-6-yl)phenyl]propanehydroxamic acid] | B (a value above 5 °C and less than or equal to 10 °C is marked “B”) | A (a TECC value less than 3 is marked “A”)
11 | CN1Cc2c(c(F)cc3[nH]ccc23)Oc2ccc(F)c(c2)-c2ncc([nH]2)C(C)(c2ccccc2)CCCOCC(C)(C)C1=O (stereo not drawn) [Compound 74, 23,29-difluoro-6,12,12,14-tetramethyl-6-phenyl-10,25-dioxa-3,14,20,31-tetrazapentacyclo[24.3.1.12,5.016,24.017,21]hentriaconta-1(30),2,4,16,18,21,23,26,28-nonaen-13-one] | A (an ΔTagg value less than or equal to 5 °C is marked “A”) | A (a TECC value less than 3 is marked “A”)
12 | Cn1nc2nc1-c1cc(ccc1F)Oc1c(F)cc3[nH]ccc3c1CCNC(=O)OCC(C)(C)CC[C@@]2(C)c1cccc(CCC(=O)O)c1 (single isomer, unassigned) [Compound 98A] | C (a value greater than 10 °C and less than or equal to 25 °C is marked “C”) | C (a value between 6 and 20 is marked “C”)
